Reference: ChEMBL document CHEMBL5154646, “Structure-guided optimization of 1H-imidazole-2-carboxylic acid derivatives affording potent VIM-Type metallo-β-lactamase inhibitors” (Eur J Med Chem, 2022)
Calls of active or inactive are those of the source. The rule behind the calls is not given here.

Experiments:
Pseudomonas aeruginosa [1] = test: Induction of morphological changes in Pseudomonas aeruginosa W35 expressing VIM-2 assessed as elongated morphology with localized swelling at 10 ug/ml incubated for 1 hr in presence of meropenem by confocal microscopic analysis; format: functional, organism-based; conditions: dose 10.0 µg/ml
Pseudomonas aeruginosa [2] = test: Potentiation of meropenem-induced antibacterial activity against Pseudomonas aeruginosa 5621 expressing VIM-2 assessed as fold reduction in meropenem MIC at 100 ug/ml incubated for 18 to 20 hrs by CLSI based broth microtiter dilution method; format: functional; conditions: dose 100 µg/ml; time 18-20 hrs
[3] = Inhibition of bacterial IMP-1 (1 to 246 residues) expressed in Escherichia coli Transetta (DE3) using FC-5 as substrate preincubated with enzyme for 10 mins followed by substrate addition by fluorescence based analysis; set-up: species or system Bacteria
Escherichia coli [4] = test: Potentiation of meropenem-induced antibacterial activity against Escherichia coli C1580 expressing VIM-2 assessed as meropenem MIC at 10 ug/ml incubated for 18 to 20 hrs by CLSI based broth microtiter dilution method (reference value: 32 ug/ml); format: functional; conditions: dose 10 µg/ml, time 18-20 hrs
Pseudomonas aeruginosa [5] = test: Potentiation of meropenem-induced antibacterial activity against Pseudomonas aeruginosa W35 expressing VIM-2 assessed as fold reduction in meropenem MIC at 100 ug/ml incubated for 18 to 20 hrs by CLSI based broth microtiter dilution method; format: functional; conditions: dose 100 µg/ml; time 18-20 hrs
[6] = Toxicity in ICR mouse assessed as change in behavior at 500 to 2000 mg/kg, ip administered for 14 days; format: organism-based; conditions: in vivo, 336 h, dose 500-2000 mg/kg, time 14 day
[7] = Toxicity in ICR mouse assessed as effect on histological architecture of kidney at 500 to 2000 mg/kg, ip administered for 14 days by hematoxylin and eosin staining based histopathological assay; format: organism-based; conditions: in vivo, 336 h, dose 500-2000 mg/kg, time 14 day
Escherichia coli [8] = test: Potentiation of meropenem-induced antibacterial activity against Escherichia coli C1541 expressing IMP-1 assessed as meropenem MIC at 10 ug/ml incubated for 18 to 20 hrs by broth microtiter dilution method (reference value: 32 ug/ml); format: functional; conditions: dose 10 µg/ml, time 18-20 hrs
Pseudomonas aeruginosa [9] = test: Induction of morphological changes in Pseudomonas aeruginosa W35 expressing VIM-2 assessed as localized swelling, elongation with increased cell permeability at 10 ug/ml incubated for 1 hr in presence of meropenem by transmission electron microscopy; format: functional, organism-based; conditions: dose 10.0 µg/ml
[10] = Toxicity in ICR mouse assessed as mortality at 500 to 2000 mg/kg, ip administered for 14 days; format: organism-based; conditions: in vivo, 336 h, dose 500-2000 mg/kg, time 14 day
Pseudomonas aeruginosa [11] = test: Synergistic antibacterial activity against Pseudomonas aeruginosa W35 expressing VIM-2 assessed as fractional inhibitory concentration index incubated for 18 to 20 hrs in presence of meropenem by checkerboard microdilution assay; format: functional; conditions: time 18-20 hrs
Pseudomonas aeruginosa [12] = test: Potentiation of meropenem-induced antibacterial activity against Pseudomonas aeruginosa W35 expressing VIM-2 assessed as meropenem MIC at 100 ug/ml incubated for 18 to 20 hrs in presence of meropenem by CLSI based broth microtiter dilution method (reference value: 64 ug/ml); format: functional; conditions: dose 100 µg/ml, time 18-20 hrs

O=C(O)c1nccn1Cc1ccncc1
Activity (Pseudomonas aeruginosa [1]): Active
fold change (FC) (Pseudomonas aeruginosa [2]): 2
IC50 [3]: > 300 µM
MIC (Escherichia coli [4]): 1 µg/mL
fold change (FC) (Pseudomonas aeruginosa [5]): 16
Activity [6]: Non-Toxic
Activity [7]: Non-Toxic
MIC (Escherichia coli [8]): 32 µg/mL
Activity (Pseudomonas aeruginosa [9]): Active
Activity [10]: Non-Toxic
fractional inhibitory concentration index (FICI) (Pseudomonas aeruginosa [11]): 0.25
MIC (Pseudomonas aeruginosa [12]): 4 µg/mL
